In ChEMBL document CHEMBL1130687, “Synthesis and morphological reversion activity on srctsNRK cells of pyrimidinylpropanamide antibiotics, sparsomycin, sparoxomycin A1, A2, and their analogues” (1998):

System: NRK
Assay: Compound was tested for its morphological reversion activity on srctsNRK cells
Type: functional
Details: Rattus norvegicus, read-out: MEC

| SMILES | minimal effective concentration [µM] |
| --- | --- |
| COCOC[C@@H](C[S+]([O-])CSC)NC(=O)/C=C/c1c(C)nc(O)nc1O (some centres not stated) | 60 |
| CCCCSC[S+]([O-])C[C@H](CO)NC(=O)/C=C/c1c(C)nc(O)nc1O (some centres not stated) | 60 |
| Cc1nc(O)nc(O)c1/C=C/C(=O)N[C@@H](CO)C[S+]([O-])C[S+](C)[O-] (some centres not stated) | 530 |
| CCC(C)SC[S+]([O-])C[C@H](CO)NC(=O)/C=C/c1c(C)nc(O)nc1O (some centres not stated) | 180 |
| Cc1nc(O)nc(O)c1/C=C/C(=O)N[C@H](CO)C[S+]([O-])C[S+](C)[O-] (some centres not stated) | 530 |
| CCSC[S+]([O-])C[C@H](CO)NC(=O)/C=C/c1c(C)nc(O)nc1O (some centres not stated) | 20 |
| CSC[S+]([O-])C[C@H](CO)NC(=O)/C=C/c1c(C)[nH]c(=O)[nH]c1=O (some centres not stated) | 6.5 |
